Data published in patent US11174216B2, “Lipids that increase insulin sensitivity and methods of using the same” (Beth Israel Deaconess Medical Center, Inc., priority 2012, dated 2021).

How the values were obtained:
Format in all cases: cell-based
Ins1 cells = assay: Insulin release studies in Ins1 cells; conditions: 25 mM glucose in the media
Description: Ins1 cells (FIGS. 31A and 31B) or primary rat islet cells (FIG. 32A and FIG. 32B) were seeded in 24 well-plates [˜10^6 cells/well]. At confluence, cells were incubated with Low Serum [2.5%] and Low Glucose [2.5 mM] media for 12 hours. Next, cells were incubated with KRB buffer for 1 h and stimulated with glucose in the presence of 5-PAHSA (FIGS. 31a and 31B) or 9-PAHSA (FIG. 31B) for 45 min in KRB. At the end of the stimulation, 100 μL of media was collected and 10 μL was used to quantitate the amount of insulin released by ELISA. Treatment Conditions for FIGS. 31A, 31B and 32B were: • 5-PAHSA or 9-PAHSA [Stock]=20.0 mM [10.76 mg/mL Methanol] • A] 1 uM=0.3 uL/6 mL [Amount of methanol/mL=0.05 uL] • B] 5 uM=1.5 uL/6 mL [Amount of methanol/mL=0.25 uL] • C] 10 uM=3.0 uL/6 mL [Amount of methanol/mL=0.50 uL] • D] 20 uM=6.0 uL/6 mL [Amount of methanol/mL=1.00 uL]
Ins1 cells were seeded in 24 well-plates [˜10^6 cells/well] and at 80% confluence, were cultured overnight in RPMI 1640 medium containing 2.5 mM glucose and 2.5% fetal bovine serum supplemented with 100 IU/ml penicillin and […], 1 mM sodium pyruvate, 2-mercaptoethanol (50 μM) and 10 mM HEPES (pH 7.4). […] At the end of the stimulation supernatant was collected and insulin released into the medium was quantified by ELISA as per manufacturer's protocol. […]

STC-1 cells [1] = assay: Calcium flux (FURA2) in STC-1 cells; conditions: 100 uM, no extracellular Ca2+
Description: For the experiments summarized in FIG. 49 the method is: Cells grown on collagen coated glass slides were preloaded with the calcium indicator, FURA2, for 60 minutes. Buffer containing either FAHFAs or vehicle was incubated with cells for a period of 3 minutes followed by washout with buffer alone. FURA2 fluorescence, an indicator of Calcium mobilization, was monitored continuously before and during the addition of compounds and throughout the washout period. Results were analyzed with metamorph software. Calcium Flux in STC-1 (intestinal enteroendocrine) cells in the absence of extracellular calcium (calcium free buffer). Ligands were injected after 3 minutes and washed out after an additional 3 minutes. The data presented is the average fold change in Fura2 fluorescence for 10 individual STC-1 cells in the same field.
DMSO control had no effect. Top panel is linoleic acid, a positive control. Middle panel 9-PAHSA (100 uM). Bottom panel 5-PAHSA (100 μM). These experiments were done in the absence of extracellular calcium.

STC-1 cells [2] = assay: ERK phosphorylation in STC-1 cells (immunoblot); conditions: 15 minutes
Description: For the experiments summarized in FIG. 50, STC-1 cells were incubated with 9-PAHSA, 5-PAHSA or 9-OAHSA at the indicated concentrations. Cells were harvested and lysed and proteins were separated by SDS PAGE and transferred onto nitrocellulose filters. The phosphorylation of ERK and the amount of total ERK was determined by immunoblotting with antibodies specific for total or phosphor-ERK. DMSO was the control. For ERK phosphorylation, cells were serum deprived overnight and stimulated with FAHFAs or vehicle as indicated for 15 minutes followed by lysis in RIPA buffer and analysis by SDS-PAGE

STC-1 cells [3] = assay: GLP-1 secretion in STC-1 enteroendocrine cells (ELISA)
Description: For the experiments summarized in FIG. 51 STC-1 cells were incubated with vehicle (DMSO), 9-PAHSA, 5-PAHSA or 9-OAHSA at the indicated concentrations or lineolic acid (100 uM) as a positive control. Media was harvested and GLP-1 was measured by ELISA.
For the experiments summarized in FIG. 52, the same protocol as described for FIG. 51 was used, except in this experiment a time course was performed. For both FIG. 51 and FIG. 52, for GLP-1 secretion STC1 cells were washed 3× with serum free culture media followed by stimulation with FAHFAs or vehicle at the indicated concentrations and timepoints. Levels of active GLP-1 were measured by ELISA.

GPR120 = biological target: T1, GPR120 (Homo sapiens, UniProt Q5NUL3); assay: PATHHUNTER beta-Arrestin GPCR assay
T1 sequence (Q5NUL3 1-361): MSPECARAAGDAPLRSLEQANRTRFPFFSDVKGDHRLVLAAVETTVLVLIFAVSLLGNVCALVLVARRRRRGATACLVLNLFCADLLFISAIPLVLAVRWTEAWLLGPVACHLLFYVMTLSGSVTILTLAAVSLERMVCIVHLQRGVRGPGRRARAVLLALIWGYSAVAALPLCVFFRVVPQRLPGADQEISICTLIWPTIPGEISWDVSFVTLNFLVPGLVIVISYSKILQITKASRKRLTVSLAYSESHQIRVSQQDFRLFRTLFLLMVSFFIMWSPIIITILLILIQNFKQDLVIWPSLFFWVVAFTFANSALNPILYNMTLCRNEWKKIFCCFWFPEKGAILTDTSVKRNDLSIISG
Source text: For the experiments summarized in FIGS. 53-55, the fragment based GPCR assay from DiscoveRx (PATHHUNTER® β-Arrestin assay) was used to as per manufacturer's instructions to determine activation of specific GPCRs as indicated in FIGS. 53-55.

Compound | insulin secretion (Ins1 cells) | Ca2+ flux from intracellular stores (STC-1 cells [1]) | ERK phosphorylation (STC-1 cells [2]) | GLP-1 secretion (STC-1 cells [3]) | activation of GPR120 (GPR120) | time course for GLP-1 secretion (STC-1 cells [3]) | ligand for GPR120 (GPR120; bar graph and titration curve)
CCCCCCCCCCCCCCCC(=O)OC(CCCCCCCCCCCCC)CCCC(=O)O (stereo not drawn) [5-PAHSA] | potentiate insulin secretion | induce Ca^2+ flux from intracellular stores | induce ERK phosphorylation | induce GLP-1 secretion | activate GPR120 |  | 
CCCCCCCCCCCCCCCC(=O)OC(CCCCCCCCC)CCCCCCCC(=O)O (stereo not drawn) [9-PAHSA, palmitoyl-9-hydroxystearic acid] | potentiate insulin secretion | induce Ca^2+ flux from intracellular stores | induce ERK phosphorylation | induce GLP-1 secretion | activate GPR120 | very rapid and sustained | is a ligand for the GPCR, GPR120
